Measurements published in patent US20230083015A1, “SMALL MOLECULE DEGRADERS OF STAT3” (THE REGENTS OF THE UNIVERSITY OF MICHIGAN, priority 2019, published 2023).

Tests used:
STAT3 = STAT3 (Homo sapiens, UniProt P40763); assay: Estimated DC50 for STAT3 degradation in MOLM-16 cells (immunoblotting); type: cell-based; parameters: In vitro cultured cells or xenograft tumors were lysed; endogenous in cells; host or cells: MOLM-16; conditions: MOLM-16, 4 h; read-out: Estimated DC50 STAT3
Protocol: (§1) FIG. 62 is a series of four images showing the fluorescent immunoblotting analysis of STAT1 and STAT3 protein in Molm-16 cells after treatment for 4 h with Cpd. Nos. 331, 296, 361, 362, 363, 364, 365, 366, and 367 at the concentrations indicated.
(§2) In vitro cultured cells or xenograft tumors were lysed 1× Cell Lysis Buffer (Cell Signaling Technology, #9803), resolved by SDS-PAGE NuPAGE gel (Thermo Fisher Scientific), and transferred to a PVDF membrane (Bio Rad). For chemiluminescence immunoblotting, membranes were blocked for 1 h using 5% Blotting-Grade Blocker (#1706404, Bio Rad) in 1× Tris-buffered saline with Tween 20 (TBST, Pierce). Antibodies used were: rabbit mAbs for STAT3 (Cell Signaling Technology, #4368, #12640) and p-STAT3 (Y705) (Cell Signaling Technology, #9245, #52075). HRP conjugated goat anti-rabbit IgG (H+L) (#A27036) secondary antibodies was from Thermo Fisher Scientific. GAPDH (Santa Cruz Technology, sc-47724HRP) and actin (Santa Cruz Technology, sc-8432HRP, sc-47778HRP) were loading controls. For fluorescent immunoblotting, membranes were blocked using Odyssey TBS Blocker Buffer (LI-COR). IRDye 680RD and 800CW Dye-labeled secondary antibodies (LI-COR) were used. The washed membranes were scanned using Odyssey CLx imager (LI-COR). The intensity of Western blot signaling was quantitated using the Odyssey software.
(§3) The estimated DC50 in MOLM-16 cells of representative Compounds of the Disclosure against STAT3 and STAT1 is provide in Table 5.

STAT1 = target: T1, STAT1 (Homo sapiens, UniProt P42224); assay: Estimated DC50 for STAT1 degradation in MOLM-16 cells (immunoblotting); type: cell-based; conditions: MOLM-16, 4 h; read-out: Estimated DC50 STAT1
T1 construct: In vitro cultured cells or xenograft tumors were lysed; endogenous in cells; host or cells: MOLM-16
T1 sequence (P42224 1-750): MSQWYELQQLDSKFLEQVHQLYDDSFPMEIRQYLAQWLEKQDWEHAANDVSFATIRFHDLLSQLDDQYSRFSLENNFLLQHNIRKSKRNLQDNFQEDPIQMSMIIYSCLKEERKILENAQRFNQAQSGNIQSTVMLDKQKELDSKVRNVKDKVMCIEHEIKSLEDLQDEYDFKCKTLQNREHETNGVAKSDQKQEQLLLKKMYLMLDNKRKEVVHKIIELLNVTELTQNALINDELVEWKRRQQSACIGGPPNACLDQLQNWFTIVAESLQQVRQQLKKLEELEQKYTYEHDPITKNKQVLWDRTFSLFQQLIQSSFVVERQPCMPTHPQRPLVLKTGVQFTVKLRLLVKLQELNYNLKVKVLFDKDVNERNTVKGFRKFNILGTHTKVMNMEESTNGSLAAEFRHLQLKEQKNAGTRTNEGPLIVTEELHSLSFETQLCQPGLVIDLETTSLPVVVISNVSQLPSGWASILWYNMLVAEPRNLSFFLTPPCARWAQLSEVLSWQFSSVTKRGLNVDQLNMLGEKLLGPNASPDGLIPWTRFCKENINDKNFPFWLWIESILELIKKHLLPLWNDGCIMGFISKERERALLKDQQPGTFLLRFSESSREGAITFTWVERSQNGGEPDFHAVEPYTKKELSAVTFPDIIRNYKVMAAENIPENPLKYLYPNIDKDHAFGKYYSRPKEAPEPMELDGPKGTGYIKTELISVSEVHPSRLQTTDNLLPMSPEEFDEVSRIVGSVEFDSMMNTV
Protocol: as §1, §2, §3

Chain of STAT3 (P40763 whole entry): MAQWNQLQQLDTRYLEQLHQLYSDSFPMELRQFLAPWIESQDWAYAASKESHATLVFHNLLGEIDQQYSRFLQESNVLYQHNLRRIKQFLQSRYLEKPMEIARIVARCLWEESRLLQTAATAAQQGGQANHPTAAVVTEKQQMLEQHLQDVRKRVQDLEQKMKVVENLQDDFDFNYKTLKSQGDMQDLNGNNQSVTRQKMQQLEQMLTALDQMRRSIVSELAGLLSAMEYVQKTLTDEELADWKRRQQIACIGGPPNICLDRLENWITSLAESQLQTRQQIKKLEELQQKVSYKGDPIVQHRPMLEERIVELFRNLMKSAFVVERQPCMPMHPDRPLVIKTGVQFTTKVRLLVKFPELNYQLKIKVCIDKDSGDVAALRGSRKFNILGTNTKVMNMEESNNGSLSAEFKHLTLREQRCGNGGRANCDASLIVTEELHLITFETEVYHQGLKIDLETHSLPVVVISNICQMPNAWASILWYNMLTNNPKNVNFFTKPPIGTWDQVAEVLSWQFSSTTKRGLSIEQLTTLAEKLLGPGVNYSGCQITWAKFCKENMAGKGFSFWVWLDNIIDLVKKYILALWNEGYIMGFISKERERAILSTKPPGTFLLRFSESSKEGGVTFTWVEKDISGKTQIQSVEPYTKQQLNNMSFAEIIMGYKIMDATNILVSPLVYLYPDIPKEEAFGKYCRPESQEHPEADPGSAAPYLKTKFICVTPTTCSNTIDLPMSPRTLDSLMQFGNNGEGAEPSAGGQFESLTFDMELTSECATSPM

CC(=O)N1CC[C@H]2CC[C@@H](C(=O)N[C@@H](CCC(N)=O)C(=O)N[C@@H](Cc3ccc(C(C)(C)C)cc3)C(=O)N3CCC(CCC#Cc4cccc5c4CN(C4CCC(=O)NC4=O)C5=O)CC3)N2C(=O)[C@@H](NC(=O)c2cc3cc(C(F)(F)P(=O)(O)O)ccc3s2)C1 (stereo partly drawn) [Cpd. No. 363, ((2-(((5S,8S,10aR)-3-acetyl-8-(((2S)-5-amino-1-(((2S)-3-(4-(tert-butyl)phenyl)-1-(4-(4-(2-(2,6-dioxopiperidin-3-yl)-1-oxoisoindolin-4-yl)but-3-yn-1-yl)piperidin-1-yl)-1-oxopropan-2-yl)amino)-1,5-dioxopentan-2-yl)carbamoyl)-6-oxodecahydropyrrolo [1,2-a][1,5]diazocin-5-yl)carbamoyl)benzo[b]thiophen-5-yl)difluoromethyl)phosphonic acid]
DC50 (STAT3): < 250 nM
DC50 (STAT1): < 250 nM

CC(C)N1CC[C@H]2CC[C@@H](C(=O)N[C@@H](CCC(N)=O)C(=O)N[C@@H](Cc3ccc(C(C)(C)C)cc3)C(=O)N3CCC(CCC#Cc4cccc5c4CN(C4CCC(=O)NC4=O)C5=O)CC3)N2C(=O)[C@@H](NC(=O)c2cc3cc(C(F)(F)P(=O)(O)O)ccc3s2)C1 (stereo partly drawn) [Cpd. No. 364, ((2-(((5S,8S,10aR)-8-(((2S)-5-amino-1-(((2S)-3-(4-(tert-butyl)phenyl)-1-(4-(4-(2-(2,6-dioxopiperidin-3-yl)-1-oxoisoindolin-4-yl)but-3-yn-1-yl)piperidin-1-yl)-1-oxopropan-2-yl)amino)-1,5-dioxopentan-2-yl)carbamoyl)-3-isopropyl-6-oxodecahydropyrrolo[1,2-a][1,5]diazocin-5-yl)carbamoyl)benzo[b]thiophen-5-yl)difluoromethyl) phosphonic acid]
DC50 (STAT3): < 250 nM
DC50 (STAT1): < 250 nM

CCN1CC[C@H]2CC[C@@H](C(=O)N[C@@H](CCC(N)=O)C(=O)N[C@@H](Cc3ccc(C(=O)N4CCC(F)(F)CC4)cc3)C(=O)N3CCC(CCC#Cc4cccc5c4CN(C4CCC(=O)NC4=O)C5=O)CC3)N2C(=O)[C@@H](NC(=O)c2cc3cc(C(F)(F)P(=O)(O)O)ccc3s2)C1 (stereo partly drawn) [Cpd. No. 365, ((2-(((5S,8S,10aR)-8-(((2S)-5-amino-1-(((2S)-3-(4-(4,4-difluoropiperidine-1-carbonyl)phenyl)-1-(4-(4-(2-(2,6-dioxopiperidin-3-yl)-1-oxoisoindolin-4-yl)but-3-yn-1-yl)piperidin-1-yl)-1-oxopropan-2-yl)amino)-1,5-dioxopentan-2-yl)carbamoyl)-3-ethyl-6-oxodecahydropyrrolo[1,2-a][1,5]diazocin-5-yl)carbamoyl)benzo[b]thiophen-5-yl)difluoromethyl) phosphonic acid]
DC50 (STAT3): < 250 nM
DC50 (STAT1): < 250 nM

CCN1CC[C@H]2CC[C@@H](C(=O)N[C@@H](CCC(N)=O)C(=O)N[C@@H](Cc3ccc(C(=O)N4CCOCC4)cc3)C(=O)N3CCC(CCC#Cc4cccc5c4CN(C4CCC(=O)NC4=O)C5=O)CC3)N2C(=O)[C@@H](NC(=O)c2cc3cc(C(F)(F)P(=O)(O)O)ccc3s2)C1 (stereo partly drawn) [Cpd. No. 366, ((2-(((5S,8S,10aR)-8-(((2S)-5-amino-1-(((2S)-1-(4-(4-(2-(2,6-dioxopiperidin-3-yl)-1-oxoisoindolin-4-yl)but-3-yn-1-yl)piperidin-1-yl)-3-(4-(morpholine-4-carbonyl)phenyl)-1-oxopropan-2-yl)amino)-1,5-dioxopentan-2-yl)carbamoyl)-3-ethyl-6-oxodecahydropyrrolo[1,2-a][1,5]diazocin-5-yl)carbamoyl)benzo[b]thiophen-5-yl)difluoromethyl) phosphonic acid]
DC50 (STAT3): < 250 nM
DC50 (STAT1): < 250 nM

CCN1CC[C@H]2CC[C@@H](C(=O)N[C@@H](CCC(N)=O)C(=O)N[C@@H](Cc3ccc(C(=O)NC4CCCCC4)cc3)C(=O)N3CCC(CCC#Cc4cccc5c4CN(C4CCC(=O)NC4=O)C5=O)CC3)N2C(=O)[C@@H](NC(=O)c2cc3cc(C(F)(F)P(=O)(O)O)ccc3s2)C1 (stereo partly drawn) [Cpd. No. 367, ((2-(((5S,8S,10aR)-8-(((2S)-5-amino-1-(((2S)-3-(4-(cyclohexylcarbamoyl)phenyl)-1-(4-(4-(2-(2,6-dioxopiperidin-3-yl)-1-oxoisoindolin-4-yl)but-3-yn-1-yl)piperidin-1-yl)-1-oxopropan-2-yl)amino)-1,5-dioxopentan-2-yl)carbamoyl)-3-ethyl-6-oxodecahydropyrrolo[1,2-a][1,5]diazocin-5-yl)carbamoyl)benzo[b]thiophen-5-yl)difluoromethyl) phosphonic acid]
DC50 (STAT3): < 1000 nM
DC50 (STAT1): < 1000 nM

CCN1CC[C@H]2CC[C@@H](C(=O)N[C@@H](CCNC(N)=O)C(=O)N[C@@H](Cc3ccc(C(C)(C)C)cc3)C(=O)N3CCC(CCC#Cc4cccc5c4CN(C4CCC(=O)NC4=O)C5=O)CC3)N2C(=O)[C@@H](NC(=O)c2cc3cc(C(F)(F)P(=O)(O)O)ccc3s2)C1 (stereo partly drawn) [compound 355, ((2-(((5S,8S,10aR)-8-(((2S)-1-(((2S)-3-(4-(tert-butyl)phenyl)-1-(4-(4-(2-(2,6-dioxopiperidin-3-yl)-1-oxoisoindolin-4-yl)but-3-yn-1-yl)piperidin-1-yl)-1-oxopropan-2-yl)amino)-1-oxo-4-ureidobutan-2-yl)carbamoyl)-3-ethyl-6-oxodecahydropyrrolo[1,2-a][1,5]diazocin-5-yl)carbamoyl)benzo[b]thiophen-5-yl)difluoromethyl)phosphonic acid]
DC50 (STAT3): > 1000 nM
DC50 (STAT1): > 1000 nM

CCN1CC[C@H]2CC[C@@H](C(=O)N[C@@H](CNC(N)=O)C(=O)N[C@@H](Cc3ccc(C(C)(C)C)cc3)C(=O)N3CCC(CCC#Cc4cccc5c4CN(C4CCC(=O)NC4=O)C5=O)CC3)N2C(=O)[C@@H](NC(=O)c2cc3cc(C(F)(F)P(=O)(O)O)ccc3s2)C1 (stereo partly drawn) [compound 356, ((2-(((5S,8S,10aR)-8-(((2S)-1-(((2S)-3-(4-(tert-butyl)phenyl)-1-(4-(4-(2-(2,6-dioxopiperidin-3-yl)-1-oxoisoindolin-4-yl)but-3-yn-1-yl)piperidin-1-yl)-1-oxopropan-2-yl)amino)-1-oxo-3-ureidopropan-2-yl)carbamoyl)-3-ethyl-6-oxodecahydropyrrolo[1,2-a][1,5]diazocin-5-yl)carbamoyl)benzo[b]thiophen-5-yl)difluoromethyl)phosphonic acid]
DC50 (STAT3): < 250 nM
DC50 (STAT1): > 1000 nM
